These are literature values, as cited in patent publication US6440438B2, “Covering impregnated with insecticide” (Protec Health International Limited, priority 1997, dated 2002).

The conditions of data set [1]: placed directly in contact with the skin.
Assay in data set [2]: not given
This is another data set of the same source.

As for `CC1(C)C(C=C(Cl)Cl)C1C(=O)OCc1cccc(Oc2ccccc2)c1` (stereo not shown) [Permethrin], the “proportion of the chemical absorbed by the skin” value in data set [1] is listed as “about 0.5%”. For the same compound, under “contact with permethrin, reversible”, the “period within which skin sensations (numbing, burning, tingling) usually subside” value was “twelve”. Moreover, the toxicity to humans entry (in vivo) is reported as “not considered toxic”. Besides, in data set [2], the solubility in water entry is on record as “does not dissolve in water”.
